Experimental data taken from US20060004029A1, “Nitrogen-containing aromatic derivatives” (priority 2003, published 2006).
pIC50: −log10 of the molar value.

Experiments:
VEGFR2 = target: T1, VEGFR2 (Homo sapiens, UniProt P35968); experiment: Inhibition against receptor tyrosine kinase activity (HTRF), VEGFR2; assay type: biochemical; conditions: His6-VEGFR2 cytoplasmic domain, biotin-poly(GT), HTRF; read-out: VEGFR2 kinase IC50
T1 construct: coding for the cytoplasmic domain, beginning with lysine 791 and including the termination codon; made in house; host or cells: Sf9 insect cells, baculovirus (pFastBacHis)
T1 sequence (P35968 786-1356 limits assumed): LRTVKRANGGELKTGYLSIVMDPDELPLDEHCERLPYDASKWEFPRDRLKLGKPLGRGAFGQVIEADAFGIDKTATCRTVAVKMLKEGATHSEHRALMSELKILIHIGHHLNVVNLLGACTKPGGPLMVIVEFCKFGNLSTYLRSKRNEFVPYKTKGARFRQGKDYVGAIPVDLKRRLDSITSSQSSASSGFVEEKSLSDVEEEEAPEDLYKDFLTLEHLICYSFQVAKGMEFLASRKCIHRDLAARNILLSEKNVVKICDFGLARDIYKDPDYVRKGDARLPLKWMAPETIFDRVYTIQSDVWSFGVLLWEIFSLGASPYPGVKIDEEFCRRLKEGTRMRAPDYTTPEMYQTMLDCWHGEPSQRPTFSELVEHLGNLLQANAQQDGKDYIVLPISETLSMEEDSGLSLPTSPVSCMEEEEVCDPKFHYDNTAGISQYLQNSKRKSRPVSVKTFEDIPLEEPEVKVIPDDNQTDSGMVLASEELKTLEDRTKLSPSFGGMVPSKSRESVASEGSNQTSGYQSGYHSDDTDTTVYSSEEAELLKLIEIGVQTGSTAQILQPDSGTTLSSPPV
Procedure: This assay is used to determine inhibition of a test substance on tyrosine kinase activity. […] Expression in an appropriate expression system can produce a polypeptide with tyrosine kinase activity. […] The recombinant construct was transfected into insect cells (Spondoptea frugiperda9 (Sf9)) to prepare a recombinant Baculovirus.
For expression of the VEGFR2 tyrosine kinase, Sf9 cells were infected with the VEGFR2 recombinant virus and collected after 48 hours. The collected cells were rinsed with ice-cooled phosphate buffered saline (PBS) and then resuspended using 20 ml of ice-cooled Lysis Buffer (50 mM Tris-HCl (pH 8.5), 5 mM 2-mercaptoethanol, 100 mM KCl, 1 mM phenylmethylsulfonyl fluoride, 1% (v/v) NP-40) per 1.5×10^8 cells. The suspension was centrifuged at 12,000 rpm for 30 minutes at 4° C. and the supernatant was obtained. The supernatant was added to a Ni-NTA agarose column (3 ml, purchased from Qiagen) equilibrated with Buffer A {20 mM Tris-HCl (pH 8.5), 5 mM 2-mercaptoethanol, 500 mM KCl, 20 mM imidazole, 10% (v/v) glycerol}. The column was washed with 30 ml of Buffer A, and then with 6 ml of Buffer B {20 mM Tris-HCl (pH 8.5), 5 mM 2-mercaptoethanol, 1M KCl, 10% (v/v) glycerol}, and finally with 6 ml of Buffer A. After washing, it was eluted with 6 ml of Buffer C {20 mM Tris-HCl (pH 8.5), 5 mM 2-mercaptoethanol, 100 mM KCl, 100 mM imidazole, 10% (v/v) glycerol}. The eluate was placed on a dialysis membrane (purchased from Spectrum Laboratories) and dialyzed with a dialysis buffer {20 mM Tris-HCl (pH 7.5), 10% (v/v) glycerol, 1 mM dithiothreitol, 0.1 mM Na3VO4, 0.1 mM EGTA}. […] Using the same method for the cytoplasmic domains of FGFR1, PDGFRβ and HGFR yielded respective recombinant proteins fused with 6 histidine residues at the N-terminal (His6-FGFR1, His6-PDGFRβ or His6-HGFR).
The tyrosine kinase reaction was conducted as follows. […] Next, 10 μl of 4 μM ATP (diluted with distilled water) was added prior to incubation at 30° C. for 10 minutes, and then 10 μl of 500 mM EDTA (pH 8.0) was added.
The tyrosine phosphorylation rate for the biotin-poly(GT) was expressed as the delta F % value as described in the HTRF Standard Experiment Methods text by CIS Diagnostics Co. The delta F % value in the presence of the test substance was determined as a ratio (%) with the delta F % value with addition of His6-VEGFR2 in the absence of the test substance defined as 100% and the delta F % value in the absence of both the test substance and His6-VEGFR2 defined as 0%.

FGFR1 = target: T2, FGFR1 (Homo sapiens, UniProt P11362); experiment: Inhibition against receptor tyrosine kinase activity (HTRF), FGFR1; assay type: biochemical; conditions: His6-FGFR1 cytoplasmic domain, biotin-poly(GT), HTRF; read-out: FGFR1 kinase IC50
T2 construct: made in house; host or cells: Sf9 insect cells, baculovirus (pFastBacHis), by the same method as VEGFR2
T2 sequence (P11362 398-822 limits assumed): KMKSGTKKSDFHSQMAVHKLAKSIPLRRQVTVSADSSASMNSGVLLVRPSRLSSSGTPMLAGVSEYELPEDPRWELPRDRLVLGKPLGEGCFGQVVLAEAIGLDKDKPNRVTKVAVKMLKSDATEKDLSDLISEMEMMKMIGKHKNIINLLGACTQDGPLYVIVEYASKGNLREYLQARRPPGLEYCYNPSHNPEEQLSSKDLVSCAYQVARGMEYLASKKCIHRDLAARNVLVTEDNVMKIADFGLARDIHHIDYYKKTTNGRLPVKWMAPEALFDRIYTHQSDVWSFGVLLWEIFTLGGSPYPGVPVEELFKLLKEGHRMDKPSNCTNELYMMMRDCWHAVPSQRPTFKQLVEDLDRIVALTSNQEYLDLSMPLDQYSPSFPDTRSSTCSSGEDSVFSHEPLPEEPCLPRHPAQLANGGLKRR
Source text: This assay is used to determine inhibition of a test substance on tyrosine kinase activity. DNA coding for the cytoplasmic domain of VEGFR2 is obtained by total cDNA synthesis (Edwards M, International Biotechnology Lab 5(3), 19-25, 1987) or by cloning. Expression in an appropriate expression system can produce a polypeptide with tyrosine kinase activity. […] For VEGFR2 (GenBank Accession No. L04947), the 1.7 kb DNA fragment described by Terman et al. (Oncogene, 6(9), 1677-1683, 1991), coding for the cytoplasmic domain, beginning with lysine 791 and including the termination codon, was isolated from a human placental cDNA library (purchased from Clontech Laboratories, Inc.) and cloned in a Baculovirus expression vector (pFastBacHis, purchased from GIBCO BRL). The recombinant construct was transfected into insect cells (Spondoptea frugiperda9 (Sf9)) to prepare a recombinant Baculovirus. (Instructions for preparation and use of recombinant Baculovirus may be found in standard texts, such as “Bac-To-Bac Baculovirus Expression System” (GIBCO BRL).) The cytoplasmic fragment starting from lysine 398 (FGFR1, GenBank Accession No. X52833), the cytoplasmic fragment starting from lysine 558 (PDGFRβ, GenBank Accession No. M21616) or the cytoplasmic fragment starting from lysine 974 (HGFR, GenBank Accession No. J02958) may be cloned and expressed by the same method for use in assays for other tyrosine kinases. EGFR was purchased from Sigma Co. (Product No. E-2645).
For expression of the VEGFR2 tyrosine kinase, Sf9 cells were infected with the VEGFR2 recombinant virus and collected after 48 hours. The collected cells were rinsed with ice-cooled phosphate buffered saline (PBS) and then resuspended using 20 ml of ice-cooled Lysis Buffer (50 mM Tris-HCl (pH 8.5), 5 mM 2-mercaptoethanol, 100 mM KCl, 1 mM phenylmethylsulfonyl fluoride, 1% (v/v) NP-40) per 1.5×10^8 cells. The suspension was centrifuged at 12,000 rpm for 30 minutes at 4° C. and the supernatant was obtained. The supernatant was added to a Ni-NTA agarose column (3 ml, purchased from Qiagen) equilibrated with Buffer A {20 mM Tris-HCl (pH 8.5), 5 mM 2-mercaptoethanol, 500 mM KCl, 20 mM imidazole, 10% (v/v) glycerol}. The column was washed with 30 ml of Buffer A, and then with 6 ml of Buffer B {20 mM Tris-HCl (pH 8.5), 5 mM 2-mercaptoethanol, 1M KCl, 10% (v/v) glycerol}, and finally with 6 ml of Buffer A. After washing, it was eluted with 6 ml of Buffer C {20 mM Tris-HCl (pH 8.5), 5 mM 2-mercaptoethanol, 100 mM KCl, 100 mM imidazole, 10% (v/v) glycerol}. The eluate was placed on a dialysis membrane (purchased from Spectrum Laboratories) and dialyzed with a dialysis buffer {20 mM Tris-HCl (pH 7.5), 10% (v/v) glycerol, 1 mM dithiothreitol, 0.1 mM Na3VO4, 0.1 mM EGTA}. After dialysis, it was supplied for SDS-electrophoresis, and the recombinant protein (His6-VEGFR2, cytoplasmic domain of VEGFR2 fused with 6 histidine residues at the N-terminus) detected at a molecular weight of approximately 100 kDa with Coumassie Brilliant Blue staining was assayed using BSA (bovine serum albumin, purchased from Sigma Co.) as the standard substance, and stored at −80° C. until use. Using the same method for the cytoplasmic domains of FGFR1, PDGFRβ and HGFR yielded respective recombinant proteins fused with 6 histidine residues at the N-terminal (His6-FGFR1, His6-PDGFRβ or His6-HGFR).
The tyrosine kinase reaction was conducted as follows. In the case of VEGFR2, for example, 10 μl of a kinase reaction solution {200 mM Hepes (pH 7.4), 80 mM MgCl2, 16 mM MnCl2, 2 mM Na3VO4}, 250 ng of biotin-bound poly(Glu4:Tyr1) (biotin-poly(GT), purchased from CIS Diagnostics Co.) (6 μl of a 15-fold dilution with distilled water), 15 ng of His6-VEGFR2 (10 μl of a 240-fold dilution with 0.4% BSA solution) and the test substance dissolved in dimethyl sulfoxide (4 μl of a 100-fold dilution with 0.1% BSA solution) were added into each well of a 96-well round-bottom plate (NUNC Co., Product No. 163320), to a total of 30 μl. […]

Row | Compound | pIC50 (VEGFR2) | pIC50 (FGFR1)
1 | O=C(Nc1cc(Oc2ccc3c(ccn3C(=O)NC3CC3)c2)ccn1)N1CCCC1 [Example 88, N1-Cyclopropyl-5-(2-((pyrrolidin-1-ylcarbonyl)amino)-4-pyridyl)oxy-1H-1-indolecarboxamide] | 7.85 | 7.62
2 | CNC(=O)n1cc(Cl)c2cc(Oc3ccnc(NC(=O)N4CCC(O)CC4)c3)ccc21 [Example 104, N1-Methyl-3-chloro-5-(2-((4-hydroxypiperidino)carbonyl)amino-4-pyridyl)oxy-1H-1-indolecarboxamide] | 8.41 | 7.72
3 | CNC(=O)Nc1cc(Oc2ccc3c(ccn3C(=O)NC)c2)ccn1 [Example 116, N1-Methyl-5-(2-((methylamino)carbonyl)amino-4-pyridyl)oxy-1H-1-indolecarboxamide] | 7.85 | 7.06
4 | CCN(CC)C(=O)Nc1cc(Oc2ccc3c(ccn3C(=O)NC)c2)ccn1 [Example 119, N1-Methyl-5-(2-((diethylamino)carbonyl)amino-4-pyridyl)oxy-1H-1-indolecarboxamide] | 7.68 | 6.92
5 | C#CCNC(=O)n1ccc2cc(Oc3ccnc(NC(=O)N4CCCC4)c3)ccc21 [Example 139, N1-(2-Propynyl)-5-(2-((pyrrolidin-1-yl)carbonyl)amino-4-pyridyl)oxy-1H-1-indolecarboxamide] | 8.20 | 6.72
6 | CNC(=O)n1ccc2cc(Oc3ccnc(NC(=O)N4CCC4)c3)ccc21 [Example 206, N1-Methyl-5-(2-(azetidin-1-ylcarbonyl)amino-4-pyridyl)oxy-1H-1-indolecarboxamide] | 8.39 | 8.46
7 | CCNC(=O)n1ccc2cc(Oc3ccnc(NC(=O)N4CCC4)c3)ccc21 [Example 207, N1-Ethyl-5-(2-(azetidin-1-ylcarbonyl)amino-4-pyridyl)oxy-1H-1-indolecarboxamide] | 8.34 | 7.92
8 | O=C(Nc1cc(Oc2ccc3c(ccn3C(=O)NC3CC3)c2)ccn1)N1CCC1 [Example 208, N1-Cyclopropyl-5-(2-(azetidin-1-ylcarbonyl)amino-4-pyridyl)oxy-1H-1-indolecarboxamide] | 8.11 | 8.17
9 | CNC(=O)n1ccc2cc(Oc3ccnc(NC(=O)N4CCC(N5CCOCC5)CC4)c3)ccc21 [Example 209, N1-Methyl-5-(2-(((4-(morpholin-4-yl)piperidin-1-yl)carbonyl)amino)pyridin-4-yloxy)-1H-1-indolecarboxamide] | 7.77 | 7.54
10 | CNC(=O)n1ccc2cc(Oc3ccnc(NC(=O)N4CCC(N5CCC5)CC4)c3)ccc21 [Example 210, N1-Methyl-5-(2-(((4-(azetidin-1-yl)piperidin-1-yl)carbonyl)amino)pyridin-4-yloxy)-1H-1-indolecarboxamide] | 8.09 | 7.40
11 | CCN(CC)C1CCN(C(=O)Nc2cc(Oc3ccc4c(ccn4C(=O)NC)c3)ccn2)CC1 [Example 211, N1-Methyl-5-(2-(((4-(diethylamino)piperidin-1-yl)carbonyl)amino)pyridin-4-yloxy)-1H-1-indolecarboxamide] | 7.35 | 7.44
12 | CNC(=O)n1ccc2cc(Oc3ccnc(NC(=O)N4CCC(N5CCC(O)CC5)CC4)c3)ccc21 [Example 212, N1-Methyl-5-(2-(((4-(4-hydroxypiperidin-1-yl)piperidin-1-yl)carbonyl)amino)pyridin-4-yloxy)-1H-1-indolecarboxamide] | 8.07 | 7.72
13 | CCCNC(=O)n1ccc2cc(Oc3ccnc(NC(=O)N4CCCC4)c3)ccc21 [Example 213, N1-Propyl-5-(2-(pyrrolidin-1-ylcarbonyl)amino-4-pyridyl)oxy-1H-1-indolecarboxamide] | 8.00 | 6.48
14 | N1-Methyl-5-(2-((4-(2-hydroxy-2-methylpropionyl)piperazin-1-yl)carbonyl)amino-4-pyridyl)oxy-1H-indolecarboxamide [Example 28] | 8.35 | 8.39
